Test results reported in patent US20130123618A1, “Imaging Agents” (priority 2008, published 2013).
Like-named read-outs stand apart in the source and are kept apart here.

Key:
Morris 51236 hepatomas = conditions: cited from earlier work
[1] = system: A549, human lung cancer cells implanted in flanks; test: tissue distribution in SCID mice bearing A549 tumors; format: in vivo; conditions: for tissue distribution, blood / tissue distribution, bone / tissue distribution, brain / tissue distribution, heart / tissue distribution, kidney / tissue distribution, liver / tissue distribution, lung / tissue distribution, muscle / tissue distribution, pancreas / tissue distribution, spleen / tissue distribution, tumor: A549 tumor-bearing SCID mice, tail vein, ave, listed as Anti 2-[^18F]FACPC Enantiomer 2
Protocol: (§1) For the in vitro amino acid uptake studies, all cells can be grown to monolayer confluency in T-175 culture flasks [Corning, Corning, N.Y.] (approx. 1×10^8 cells/flask) in Dulbecco's Modified Eagle's Medium (DMEM) [Sigma, St. Louis, Mo.] in a humidified incubator (37° C., 5% CO2/95% air). Media are supplemented with 10% fetal calf serum [Hyclone, Logan, Utah], and antibiotics (10,000 U/ml penicillin and 10 mg/ml streptomycin) (Sigma, St. Louis, Mo.). For tissue culture passage, monolayer cells are detached by gentle trypsinization, resuspended in complete media, and split 1:10 into new T-flasks. Cultures are passaged weekly, and fed fresh media every 2 to 3 days. To initiate tumor growth in SCID mice, 1×10^6 cells are injected s.c. bilaterally into the flanks (inguinal region) of the recipient animals using a 1 ml syringe with a 27 gauge needle. Ex vivo experiments can be performed with animals containing tumors weighing between 500 mg and 1 g, as estimated by caliper measurement (tumor weight=(π/6)*abc, where a, b and c are the tumor length, width and height, respectively).
(§2) Tissue distribution of the compounds is measured in SCID mice (average weight, 20-25 g) bearing human tumors as follows. The candidate radioligands (20 uCi in 0.4 ml 0.9% NaCl) are injected into the tail vein of tumor-bearing mice. […] Tissues (blood, heart, liver, lungs, kidneys, bone, thyroid, muscle, brain and tumor) are excised, rinsed in saline, and blotted dry. The tissues are weighed, placed into 12×75 mm glass vials, the radioactivity determined with a gamma counter, and the percent dose/gram calculated. Total activities of blood and muscle are calculated by assuming that they account for 7% and 40% of the total body mass, respectively.
(§3) Tables 3-7 show the results of the biodistribution studies with the separate enantiomers of anti-2-[^18F]FACPC and racemic anti-2-[^18F]FACBC as a comparison in SCiD mice implanted in their flanks with A549, human lung cancer cells and DU145, human prostate cancer cells.

[2] = system: DU145, human prostate cancer cells implanted in flanks; test: tissue distribution in SCID mice bearing DU145 tumors; format: in vivo; conditions: DU145 tumors, SCID mice, time points sampled post injection
Protocol: as §1, §2, §3

9L Rat gliosarcoma cells = test: in vitro amino acid uptake in 9L cells; format: cell-based
From the text: (§4) Compounds have been evaluated in vitro for tumor binding specificity (i.e. uptake cells) using a variety of tumor cell lines available in the art, along with reference compounds such as Me-AlB and BCH. Detailed description of these assays can be found in Martarello et al. (2002) Journal of Medicinal Chemistry, 45:2250-2259 and McConathy et al. (2003) Nuclear Medicine and Biology, 30:477-490. These so called “amino acid uptake studies” are typically carried out with radiolabeled compounds in at least five phenotypically different human tumor cell lines (e.g., A549 lung carcinoma, MB468 breast carcinoma, DU145 prostate carcinoma-androgen independent, LnCap-androgen dependent, SKOV3 ovarian carcinoma, U87 glial blastoma, MIA PaCa-2 pancreas carcinoma, MDA MB231 breast carcinoma). These tumor cell lines can be grown either in vitro or in vivo with severe combined immunodeficiency (SCID) mice as a host. The afore-mentioned tumor cell lines are available at the Winship Cancer Institute of Emory University.
(§5) For the in vitro amino acid uptake studies, all cells can be grown to monolayer confluency in T-175 culture flasks [Corning, Corning, N.Y.] (approx. 1×10^8 cells/flask) in Dulbecco's Modified Eagle's Medium (DMEM) [Sigma, St. Louis, Mo.] in a humidified incubator (37° C., 5% CO2/95% air). […]
(§6) In the in vitro studies the uptake rate of each amino acid compound is measured in each tumor line, as well as the dominant transport mechanisms of each tumor cell line. After trypsinization, cells are resuspended in serum-free media, then counted on a hemocytometer, with viability assessed through Trypan blue staining. […] The vials are placed in a Cobra-II gamma counter (Packard, Meriden, Conn.), with the activity per cell number determined. […] Saline washes are performed as described above, and the filtered cells' radioactivity determined on the gamma counter. […]
(§7) The uptake of all compounds were measured in human and rat cancer cell lines and the dominant transport (“A” and “L”) mechanism of each culture were determined. […]

[3] = system: DU145 Human Prostate carcinoma cells; test: in vitro amino acid uptake in DU145 cells; format: cell-based
From the text: as §4, §5, §6, §7

[4] = system: A549 Human Lung adenocarcinoma cells; test: in vitro amino acid uptake in A549 cells; format: cell-based
From the text: as §4, §5, §6, §7

U87 Human Glioma cells = test: in vitro amino acid uptake in U87 cells; format: cell-based
From the text: as §4, §5, §6, §7

[5] = system: MIA PaCa-2 Human Pancreas carcinoma cells; test: in vitro amino acid uptake in MIA PaCa-2 cells; format: cell-based
Protocol: (§8) Compounds have been evaluated in vitro for tumor binding specificity (i.e. uptake cells) using a variety of tumor cell lines available in the art, along with reference compounds such as Me-AlB and BCH. Detailed description of these assays can be found in Martarello et al. (2002) Journal of Medicinal Chemistry, 45:2250-2259 and McConathy et al. (2003) Nuclear Medicine and Biology, 30:477-490. […]
as §6, §7

[6] = system: MDA MB231 Human Breast carcinoma cells; test: in vitro amino acid uptake in MDA MB231 cells; format: cell-based
Protocol: as §8, §6, §7

[7] = system: SKOV3 Human Ovarian carcinoma cells; test: in vitro amino acid uptake in SKOV3 cells; format: cell-based
From the text: as §4, §5, §6, §7

[8] = system: MDA MB468 Human Breast carcinoma cells; test: in vitro amino acid uptake in MDA MB468 cells; format: cell-based
From the text: as §4, §5, §6, §7

[9] = system: LnCap Human Prostate carcinoma cells; test: in vitro amino acid uptake in LnCap cells; format: cell-based
Protocol: as §8, §6, §7

tumor cells = test: overall conclusion of uptake studies in cancer cells in vitro; format: cell-based
Protocol: In the in vitro studies the uptake rate of each amino acid compound is measured in each tumor line, as well as the dominant transport mechanisms of each tumor cell line. After trypsinization, cells are resuspended in serum-free media, then counted on a hemocytometer, with viability assessed through Trypan blue staining. Approximately 1×10^7 cells are exposed to each compound (15 μCi) in 15 ml of amino acid free media for 5, 10, 15, 30 and 60 minutes at 37° C. Cells are then centrifuged at 150×g for 5 minutes, rinsed in 5 ml cold-saline, recentrifuged, resuspended in 3 ml saline, and placed into 12×75 mm glass vials (Fisher, Pittsburgh, Pa.). The vials are placed in a Cobra-II gamma counter (Packard, Meriden, Conn.), with the activity per cell number determined. Inhibition studies determine the dominant transport mechanism (L, A or ASC) for each line [Martarello et al. (2002) supra; McConathy et al. (2003) supra]. For these studies, cells are exposed to the compounds for 30 minutes in amino acid free media containing one of three inhibitors (2-amino-norbornyl-2-carboxylic acid (BCH), 10 mM; α-(methylamino)-isobutyric acid (MeAlB), 10 mM; and an alanine-serine-cysteine mixture 1:1:1 (acs), 10 mM). Saline washes are performed as described above, and the filtered cells' radioactivity determined on the gamma counter. Comparisons with the 30 minute control uptake indicate the major transporters used. Results of these studies are found in FIGS. 1-18.
Approximately 10^6 cells were exposed to the [^18F]amino acid candidate (5 μCi) in 3 ml of amino acid-free media±transporter inhibitors (10 mM) for 30 minutes under incubation conditions by the method previously described (McConathy, J.; Martarello, L.; Malveaux, E.; Camp, V.; Bowers, G.; Olson, J.; Goodman, M. (2002) Radiolabeled amino acids for tumor imaging with PET: radiosynthesis and biological evaluation of [^18F]2-amino-3-fluoro-2-methylpropanoic acid and [^18F]3-fluoro-2-methyl-2-(methylamino)-propanoic acid. J. Med. Chem. 45, 2240-2249). The inhibition studies determined the dominant transport mechanism (L, A) for each candidate PET amino acid for each tumor model. 2-Methylaminoisobutyric acid (MeAlB) and 2-aminobicyclo-[2.2.1]-heptane-2-carboxylic acid (BCH) serve as inhibitors for the “A”, “L” transport systems, respectively.

[10] = system: tumor lesions in 33 patients; conditions: single photon rectilinear scanner; cited from earlier work
tumor lesions = conditions: 7 human subjects, PET scanner; cited from earlier work
[11] = carbon-14 labeled, rats transplanted with Morris 51236 hepatomas

For `NC1(C(=O)O)CCCCC1` [ACHC, 1-amino-cyclohexane-1-carboxylic acid], the tumor uptake (Morris 51236 hepatomas; [11]) is given as 0.9 % dose/g.

For `N[C@]1(C(=O)O)CCC[C@@H]1[18F]` (mixture of isomers) [Enantiomer 13, (1S,2S) and (1R,2R) anti-1-amino-2-[^18F]fluorocyclopentyl-1-carboxylic acid], the “uptake of radioactivity in the tumors compared with muscle” value ([1]; A549 tumors, SCID mice, time points sampled post injection) was “greater than muscle” and the “uptake of radioactivity in the tumors compared with muscle” value [2] was “greater than muscle”.

In the case of `N[C@]1(C(=O)O)CCC[C@@H]1[18F]` (single isomer, unassigned; enantiomer 2) [Enantiomer 2, anti-2-[^18F]FACPC], the “% Dose uptake per 0.5 × 10−6 Cells” value (9L Rat gliosarcoma cells) is reported as 7.5 % Dose/0.5 × 10^−6, the “% Dose uptake per 0.5 × 10−6 Cells” value [3] is reported as 4.7 % Dose/0.5 × 10^−6 and the “% Dose uptake per 0.5 × 10−6 Cells” value [4] is reported as 9.6 % Dose/0.5 × 10^−6. The “% Dose uptake per 0.5 × 10−6 Cells” value (U87 Human Glioma cells) was 17 % Dose/0.5 × 10^−6, the “% Dose uptake per 0.5 × 10−6 Cells” value [5] was 3.8 % Dose/0.5 × 10^−6 and the “% Dose uptake per 0.5 × 10−6 Cells” value [6] was 6.4 % Dose/0.5 × 10^−6. For the same compound, the “% Dose uptake per 0.5 × 10−6 Cells” value [7] was 5.5 % Dose/0.5 × 10^−6, the “% Dose uptake per 0.5 × 10−6 Cells” value [8] was 7.5 % Dose/0.5 × 10^−6 and the “% Dose uptake per 0.5 × 10−6 Cells” value [9] was 3.8 % Dose/0.5 × 10^−6. The “tissue distribution, blood” value ([1]; 15 min) was 3.68 percent dose/gram, the “tissue distribution, bone” value ([1]; 15 min) was 2.50 percent dose/gram and the “tissue distribution, brain” value ([1]; 15 min) was 0.53 percent dose/gram. The “tissue distribution, heart” value ([1]; 15 min) was 3.18 percent dose/gram, the “tissue distribution, kidney” value ([1]; 15 min) was 10.81 percent dose/gram and the “tissue distribution, liver” value ([1]; 15 min) was 2.86 percent dose/gram. The “tissue distribution, lung” value ([1]; 15 min) was 4.75 percent dose/gram, the “tissue distribution, muscle” value ([1]; 15 min) was 2.07 percent dose/gram and the “tissue distribution, pancreas” value ([1]; 15 min) was 40.68 percent dose/gram. For the same compound, the “tissue distribution, spleen” value ([1]; 15 min) was 9.37 percent dose/gram, the “tissue distribution, tumor” value ([1]; 15 min) was 8.13 percent dose/gram and the “tissue distribution, blood” value ([1]; 60 min) was 1.17 percent dose/gram. For the same compound, the “tissue distribution, bone” value ([1]; 60 min) was 1.77 percent dose/gram, the “tissue distribution, brain” value ([1]; 60 min) was 0.58 percent dose/gram and the “tissue distribution, heart” value ([1]; 60 min) was 1.82 percent dose/gram. The “tissue distribution, kidney” value ([1]; 60 min) was 3.73 percent dose/gram, the “tissue distribution, liver” value ([1]; 60 min) was 1.22 percent dose/gram and the “tissue distribution, lung” value ([1]; 60 min) was 1.77 percent dose/gram. The “tissue distribution, muscle” value ([1]; 60 min) was 1.78 percent dose/gram, the “tissue distribution, pancreas” value ([1]; 60 min) was 16.42 percent dose/gram and the “tissue distribution, spleen” value ([1]; 60 min) was 2.95 percent dose/gram. For the same compound, the “tissue distribution, tumor” value ([1]; 60 min) was 5.78 percent dose/gram and the “selective uptake in tumor cells” value (tumor cells) was “selectively taken up in tumor cells”.

For `NC1(C(=O)O)CCC1` [ACBC], the tumor uptake (Morris 51236 hepatomas; rat, in vivo) is listed as 4.6 % dose/g.

For `NC1([11C](=O)O)CCCC1` [[^11C]ACPC, 1-Aminocyclopentane-1 [^11C]Carboxylic Acid], the “lesions with increased uptake” value [10] is given as 70% and the uptake in lesions (tumor lesions) is given as “increased uptake was observed in lesions in all subjects”.

In the case of `NC1(C(=O)O)CC1` [ACPRC, 1-amino-cyclopropane-1-carboxylic acid], the tumor uptake (Morris 51236 hepatomas; [11]) is given as 1.2 % dose/g.

In the case of `NC1(C(=O)O)CCCC1` [ACPC, 1-amino-cyclopentane-1-carboxylic acid], the tumor uptake (Morris 51236 hepatomas; [11]) is listed as 3.6 % dose/g.

In the case of `NC1([11C](=O)O)CCC1` [[^11C]ACBC, 1-aminocyclobutane-1-[^11C]carboxylic acid], the uptake in lesions (tumor lesions) is listed as “increased uptake was observed in lesions in all subjects”.
